Experiments:
[1] = Interimage in bilayer format: IDIR-2 in blue layer, IEM in green layer; details: for Cg /Cb+g (interimage): IEM or CIEM in green layer at 7.2×10^-3 mmol/m^2, higher ratio = more interimage, no-IEM check; for Relative Speed (green layer): IEM or CIEM in green layer, speed point +0.15 density above Dmin, normalized to check
Experimental: Bilayer photographic elements were prepared by coating the following layers on a cellulose triacetate film support (coverages are in g/m^2). Unless otherwise noted, all comparative and inventive compounds were dispersed in twice their own weight of N,N-dibutyllauramide: […] Layer 3 (Interlayer): gelatin at 0.64, ILS-1 at 0.11 and FD-1 at 0.11. […] Layer 5 (Overcoat): gelatin at 2.79 and 0.02 bis-vinylsulfonemethylether. […] Contrast of the elements was determined using the maximum slope between any two density points. In this test, the ratio of the contrast of the green only exposure to the contrast of the green of a blue and green exposure (Cg /Cb+g) is a measure of the interimage. A higher ratio means more inhibition originating from the blue and affecting the green record. Relative speed of the green layer was determined by measuring the speed point +0.15 density units above Dmin and normalizing to the check position.

[2] = Contrast (gamma) reduction by DI(A)R in single layer film element, C-41 process; details: DIR at 0.055 mmol/m^2, relative to non-inhibitor containing check; KODAK FLEXICOLOR (C-41)
Description: The mild inhibitor fragments that are used in this invention are defined as those that cause less than a 45% gamma reduction, or more preferably less than a 40% gamma reduction, relative to a non-inhibitor containing check when coated as the following single layer film element on a cellulose triacetate film support (coverages are in g/m^2): […]
Overcoat Gelatin at 2.79 and 0.02 bis-vinylsulfonemethylether
Imaging Layer Gelatin at 2.79
Magenta Image Coupler M-1 (dispersed at 80% by
weight in tricresyl phosphate and 20% by weight
N,N-dibutyl-2-butoxy-5-t-octylaniline) at 0.692
DIR being tested at 0.055 mmol/m^2 (dispersed in twice
its weight in N,N-dibutyllauramide)
Green sensitized AgBrI at 1.08
Samples of each element were given a stepped exposure and processed in the KODAK FLEXICOLOR (C-41) process as described in British Journal of Photography Annual, 1988, pp 196-198. Contrast of the elements was determined using the maximum slope between any two density points.

[3] = Interimage in multilayer format (density change of receiver record); details: Table IV; IEM in green layer
Description: Multilayer Film Example ML-1:
Layer 1 (Antihalation layer): black collodial silver sol at 0.135; ILS-1 at 0.162,
Layer 2 (Slow cyan layer): a blend of two red sensitized (both with a mixture of RSD-1 and RSD-2) tabular silver iodobromide emulsions: (i) 0.66×0.12, 4.1 mole % I at 0.302 (ii) 0.55×0.08, 1.5 mole % I at 0.464; cyan dye-forming coupler C-1 at 0.535; DIR coupler CDIR-1 at 0.027; bleach accelerator releasing coupler B-1 at 0.057; masking coupler MC-1 at 0.032; and gelatin at 1.68.
Layer 3 (Mid cyan layer): a blend of two red sensitized (same as above) tabular silver iodobromide emulsions: (i) […], 4.1 mole % I at 0.194 (ii) 1.07×0.11, 4.1 mole % I at 0.238; cyan coupler C-1 at 0.171; CDIR-1 at 0.019; MC-1 at 0.032; B-1 at 0.008; and gelatin at 1.08.
Layer 4 (Fast cyan layer): a red sensitized (same as above) tabular silver iodobromide emulsion (1.33×0.12, 4.1 mole % I) at 0.594; C-1 at 0.184; CDIR-1 at 0.027; MC-1 at 0.022; and gelatin at 0.918.
Layer 5 (Interlayer): ILS-1 at 0.086 and gelatin at 0.540.
Layer 6 (Slow magenta layer): a blend of two green sensitized (both with a mixture of GSD-1 and GSD-2) silver iodobromide emulsions: (i) 0.81×0.12, 2.6 mole % iodide at 0.346 and (ii) 0.55×0.08, 1.5 mole % iodide at 0.130; magenta dye forming coupler M-1 at 0.270; MC-2 at 0.086; IDIR-5 at 0.011; and gelatin at 1.08.
Layer 7 (Mid magenta layer): a blend of two green sensitized (same as above) tabular silver iodobromide emulsions (i) 1.22×0.11, 4.1 mole % I at 0.248 and (ii) 1.07×0.11, 4.1 mole % I at 0.248; M-1 at 0.124; MC-2 at 0.119; IDIR-5 at 0.043; OxDS-2 at 0.016; and gelatin at 1.22.
Layer 8 (Fast magenta layer): a green sensitized tabular silver iodobromide (1.33×0.12, 4.1 mole % I) emulsion at 0.486; M-1 at 0.076; MC-2 at 0.054; B-1 at 0.003; IDIR-5 at 0.015; OxDS-2 at 0.009; and gelatin at 1.02.
Layer 9 (Yellow filter layer): yellow filter dye FD-1 at 0.054; ILS-1 at 0.086; and gelatin at 0.648.
Layer 10 (Slow yellow layer): a blend of three blue sensitized (all with a mixture of BSD-1 and BSD-2) tabular silver iodobromide emulsions (i) 0.55×0.08, 1.5 mole % I at 0.270 (ii) […], 1.5 mole % I at 0.248 and (iii) 1.25×0.14, 4.1 mole % I at 0.400; yellow dye forming coupler Y-2 at 1.08; IDIR-6 at 0.076; CDIR-1 at 0.032; B-1 at 0.022; and gelatin at 1.879.
Layer 11 (Fast yellow layer): a blend of two blue sensitized (both with a mixture of BSD-1 and BSD-2) tabular silver iodobromide emulsions (i) 1.25×0.14, 4.1 mole % I at 0.108 (ii) 2.67×0.13, 4.1 mole % I at 0.378; Y-2 at 0.238; IDIR-6 at 0.076; B-1 at 0.005; and gelatin at 0.810.
Layer 12 (Protective overcoat and UV filter layer): silver bromide Lippman emulsion at 0.216; UV-1 at a total of 0.108; gelatin at 1.242 and bis(vinylsulfonyl)methane hardener at 1.75% of total gelatin weight.
Surfactants, coating aids, emulsion addenda, sequestrants, thickeners, lubricants, matte and tinting dyes were added to the appropriate layers as is common in the art. […]
These multilayer coatings were given a stepped exposure in one color record but only flashed (non-imagewise exposure) in the other two records and processed as described for the bilayer experiments. To monitor interimage, a step nearest to density of 1.5 in the stepped color record (the causer) was chosen, and the difference in density of the other color records (the receivers) at that step and at the no exposure step of the causer was determined. […]

SMILES: CSCC(CSC)OC(=O)CCn1nn[nH]c1=S [CIEM-7]
- Cg /Cb+g (interimage) [1]: 1.45
- Relative Speed (green layer) [1]: 0.90

SMILES: CCCCCCCCCCCCOc1ccc(C)cc1NC(=O)c1cc(Oc2ccc(CSc3nnnn3CC(=O)OCCC)cc2[N+](=O)[O-])c2ccccc2c1O [IDIR-3]
- % Contrast Reduction [2]: -24.5%

SMILES: CCCCCCCCCCCCCCOc1ccccc1NC(=O)c1cc(Oc2ccc(CSc3nnnn3-c3ccccc3)cc2[N+](=O)[O-])c2ccccc2c1O [CDIR-5]
- % Contrast Reduction [2]: -70.5%

SMILES: CCn1nn[nH]c1=S [CIEM-5]
- Cg /Cb+g (interimage) [1]: 1.23
- Relative Speed (green layer) [1]: 1.00

SMILES: CCCCCC(=O)Nc1cccc(-n2nn[nH]c2=S)c1 [IEM-9]
- Cg /Cb+g (interimage) [1]: 2.20
- Relative Speed (green layer) [1]: 0.91

SMILES: CCCCCCCCCCC(Oc1ccc(S(=O)(=O)c2ccc(O)cc2)cc1)C(=O)Nc1ccc(N2N=C(C)C(n3nc(C)c(C(=O)OCCCCCC)n3)C2=O)cc1 (centres unmarked) [CDIR-9]
- % Contrast Reduction [2]: -50.1%

SMILES: CCCCCCCCCCCCCCCCS(=O)(=O)Nc1ccc(Cl)c(NC(=O)C(Oc2ccc([N+](=O)[O-])cc2CN(CC)C(=O)Sc2nnnn2-c2ccccc2)C(=O)C(C)(C)C)c1 (centres unmarked) [CDIR-7]
- % Contrast Reduction [2]: -63.9%

SMILES: CCCCCCCCCCCCCCCCS(=O)(=O)Nc1ccc(Cl)c(NC(=O)C(C(=O)C(C)(C)C)n2ncc(SCC(=O)OCCCCCC)n2)c1 (centres unmarked) [CDIR-11]
- % Contrast Reduction [2]: -58.6%

SMILES: CCCCCCCCCOC(=O)C(CCSC)n1nn[nH]c1=S (centres unmarked) [IEM-5]
- Cg /Cb+g (interimage) [1]: 1.39
- Relative Speed (green layer) [1]: 0.96

SMILES: CSCC(=O)Nc1cccc(-n2nn[nH]c2=S)c1 [CIEM-8]
- Cg /Cb+g (interimage) [1]: 1.47
- Relative Speed (green layer) [1]: 0.92

SMILES: CCCCCCCCOC(=O)CSCCn1nn[nH]c1=S [IEM-6]
- Cg /Cb+g (interimage) [1]: 1.31
- Relative Speed (green layer) [1]: 0.99

SMILES: CCCCCCCCCCCCCCOc1ccccc1NC(=O)c1cc(Oc2ccc(CSc3nnnn3Cc3ccc(OC)cc3)cc2[N+](=O)[O-])c2ccccc2c1O [CDIR-1]
- % Contrast Reduction [2]: -55.4%
- interimage, in words [3]: Interimage is not increased

SMILES: CCCCCCCCCCCCCCCCS(=O)(=O)Nc1cc(CSc2nnnn2CC(=O)OCCC)ccc1Oc1cc(C(N)=O)c(O)c2ccccc12 [IDIR-1]
- % Contrast Reduction [2]: -34.5%

SMILES: CCCCCCCCCCCCCCOc1ccccc1NC(=O)c1cc(Sc2nnnn2-c2ccccc2)c2ccccc2c1O [CDIR-6]
- % Contrast Reduction [2]: -75.4%

SMILES: O=C(O)Cn1nn[nH]c1=S [CIEM-3]
- Cg /Cb+g (interimage) [1]: 1.23
- Relative Speed (green layer) [1]: 0.99

SMILES: CCCCCCCCCCCCCCOc1ccccc1NC(=O)c1cc(Oc2ccc(CSc3nnnn3-c3ccccc3)cc2[N+](=O)[O-])c2ccccc2c1O [CDIR-4]
- % Contrast Reduction [2]: -77.1%

SMILES: CCCCOC(=O)CSCCn1nn[nH]c1=S [IEM-7]
- Cg /Cb+g (interimage) [1]: 1.75
- Relative Speed (green layer) [1]: 0.95

SMILES: CCCCCCCCCCCCCCOc1ccccc1NC(=O)c1cc(Oc2ccc([N+](=O)[O-])cc2CN(C(=O)Sc2nnnn2-c2ccccc2)C(C)C)c2ccccc2c1O [CDIR-3]
- % Contrast Reduction [2]: -75.7%

SMILES: CCCCCCCC(=O)Nc1cccc(-n2nn[nH]c2=S)c1 [IEM-10]
- Cg /Cb+g (interimage) [1]: 1.96
- Relative Speed (green layer) [1]: 0.91

SMILES: CCC(Oc1ccc(C(C)(C)CC)cc1C(C)(C)CC)C(=O)Nc1ccc(N2N=C(N3CCCC3)C(Sc3nnnn3-c3ccccc3)C2=O)cc1 (centres unmarked) [CDIR-2]
- % Contrast Reduction [2]: -67.1%

SMILES: CCCCCCCCCCCCCCCCS(=O)(=O)Nc1ccc(Cl)c(NC(=O)C(Oc2ccc([N+](=O)[O-])cc2CN(CC)C(=O)Sc2nnnn2CC(=O)OCCC)C(=O)C(C)(C)C)c1 (centres unmarked) [IDIR-2]
- % Contrast Reduction [2]: -25.3%

SMILES: CCCOC(=O)Cn1nnnc1SC1C(=O)N(c2ccc(NC(=O)C(CC)Oc3ccc(C(C)(C)CC)cc3C(C)(C)CC)cc2)N=C1N1CCCC1 (centres unmarked) [IDIR-4]
- % Contrast Reduction [2]: -22.6%

SMILES: CCCCCCCCCCC(=O)Nc1cccc(-n2nn[nH]c2=S)c1 [IEM-11]
- Cg /Cb+g (interimage) [1]: 1.29
- Relative Speed (green layer) [1]: 0.99

SMILES: O=C(O)c1ccc(-n2nn[nH]c2=S)cc1 [CIEM-9]
- Cg /Cb+g (interimage) [1]: 1.21
- Relative Speed (green layer) [1]: 1.00

SMILES: CCCCCCCOC(=O)C(CCC)n1nn[nH]c1=S (centres unmarked) [IEM-8]
- Cg /Cb+g (interimage) [1]: 2.02
- Relative Speed (green layer) [1]: 0.91

SMILES: CCCCCCCCCCCCCCOc1ccccc1NC(=O)c1cc(Sc2nnnn2CC)c2ccccc2c1O [IDIR-8]
- % Contrast Reduction [2]: -2.4%

SMILES: CCCCCCOC(=O)c1nn(C2C(=O)N(c3ccc(NC(=O)C(CC)Oc4ccc(C(C)(C)CC)cc4C(C)(C)CC)cc3)N=C2C)nc1C (centres unmarked) [CDIR-8]
- % Contrast Reduction [2]: -49.2%

SMILES: CCCCCCCCCCCCOC(=O)C(C)OC(=O)c1ccc(Cl)c(NC(=O)C(C(=O)Nc2cc(C(=O)OC(C)C(=O)OCCCCCCCCCCCC)ccc2Cl)n2nnc3cc(Cl)c(Cl)cc32)c1 (centres unmarked) [IDIR-7]
- % Contrast Reduction [2]: -20.0%

SMILES: CCn1nn[nH]c1=S [CIEM-4]
- Cg /Cb+g (interimage) [1]: 1.22
- Relative Speed (green layer) [1]: 1.00

SMILES: CCCCCCCCCCCCCCCCS(=O)(=O)Nc1ccc(Cl)c(NC(=O)C(C(=O)C(C)(C)C)n2nc(C)c(C(=O)OCCCCCC)n2)c1 (centres unmarked) [CDIR-10]
- % Contrast Reduction [2]: -53.8%

SMILES: S=c1[nH]nnn1-c1ccccc1 [CIEM-2]
- Cg /Cb+g (interimage) [1]: 1.44
- Relative Speed (green layer) [1]: 0.91

SMILES: O=C(CSCCn1nn[nH]c1=S)OC1CCCCC1 [IEM-3]
- Cg /Cb+g (interimage) [1]: 1.85
- Relative Speed (green layer) [1]: 0.91

SMILES: CCC(C)OC(=O)C(CCSC)n1nn[nH]c1=S (centres unmarked) [CIEM-6]
- Cg /Cb+g (interimage) [1]: 1.72
- Relative Speed (green layer) [1]: 0.90

— patent US6190849A, “Photographic element containing ballasted tetrazole derivative and inhibitor releasing coupler” (priority 1999, dated 2001)
